Source: article PMC3199744, “Preformulation and stability in biological fluids of the retrocyclin RC-101, a potential anti-HIV topical microbicide” (AIDS Research and Therapy, 2011)

How the values were obtained:
[1] = Thermal degradation of RC-101 solution, HPLC; format: physicochemical; settings: 500 μg/mL solution, HPLC-UV 215 nm
Method: (§1) For all pre-formulation studies described below, triplicate solutions of RC-101 (500 μg/mL) were prepared in either water or aqueous buffer solution. Thermal degradation studies were conducted at 25, 37, and 65°C for a minimum period of 1 week. The effect of pH on the stability of RC-101 was evaluated over the pH range from 3 to 12 using 10 mM phosphate buffer solutions, at low (50 mmol/kg) and high (500 mmol/kg) ionic strength. Oxidation of RC-101 was evaluated by exposing a solution of RC-101 to hydrogen peroxide (H2O2) at concentrations of 3.0, 0.08, and 0.002% (v/v). The high H2O2 concentration (3.0%) was selected as a forced degradation concentration. […] Protection against oxidation was investigated by the addition of antioxidants commonly used in pharmaceutical products. The antioxidants used in this study were: methionine (95.2 μg/mL or 250 μg/mL), cysteine (95.2 μg/mL), glutathione (90.9 μg/mL), vitamin E TPGS (90.9 μg/mL), ascorbic acid (1.0 mg/mL), sodium ascorbate (1.0 mg/mL), and EDTA (1.0 μg/mL).
(§2) RC-101 concentration after exposure to preformulation conditions was analyzed by HPLC as previously described [11]. Briefly, the HPLC system (Waters Corporation, Milford, MA) was equipped with an autoinjector model 717, a quaternary pump model 600, and an ultraviolet (UV) detector model 2487 set up at 215 nm. Separation of RC-101 from degradant products was achieved using a Phenomenex Jupiter 5 μC5 300 Å (4.6 × 250 mm) column (Phenomenex, Torrance, CA) protected by a Widepore C5 (4 × 3.0 mm) guard cartridge (Phenomenex). The gradient consisted of mobile phase A (0.1% TFA in water (v/v)), and mobile phase B (0.07% TFA in acetonitrile (v/v)) pumped at a flow rate of 1.0 mL/min. […]
(§3) HPLC data obtained from the preformulation studies were expressed as the average percentage of the peak area from time 0 ± standard deviation, n = 3. Results were analyzed by one-way analysis of variance (ANOVA) with multiple comparisons of individual time points by using post hoc Bonferroni correction to detect significant differences under different conditions. […]

[2] = Effect of pH on stability of RC-101, HPLC; format: physicochemical; settings: 500 μg/mL, HPLC-UV
Method: as §1
RC-101 concentration after exposure to preformulation conditions was analyzed by HPLC as previously described [11]. Briefly, the HPLC system (Waters Corporation, Milford, MA) was equipped with an autoinjector model 717, a quaternary pump model 600, and an ultraviolet (UV) detector model 2487 set up at 215 nm. Separation of RC-101 from degradant products was achieved using a Phenomenex Jupiter 5 μC5 300 Å (4.6 × 250 mm) column (Phenomenex, Torrance, CA) protected by a Widepore C5 (4 × 3.0 mm) guard cartridge (Phenomenex). The gradient consisted of mobile phase A (0.1% TFA in water (v/v)), and mobile phase B (0.07% TFA in acetonitrile (v/v)) pumped at a flow rate of 1.0 mL/min. Forced degraded samples (oxidation, temperature, and basic and acidic hydrolysis) were used to establish that the method could separate the degradants from the main peak.
HPLC data obtained from the preformulation studies were expressed as the average percentage of the peak area from time 0 ± standard deviation, n = 3. Results were analyzed by one-way analysis of variance (ANOVA) with multiple comparisons of individual time points by using post hoc Bonferroni correction to detect significant differences under different conditions. P-values ≤ 0.05 were considered to be statistically significant, unless specified otherwise.

[3] = Stability in fresh normal human vaginal fluid (HVF), detection by LC-MS/MS; settings: for time RC-101 detected in HVF: LC-MS/MS; for detection of RC-101 by LC-MS/MS: nanoLC-SRM MS, qualitative
Method: Inclusion criteria included ages between 18 and 45 years and agreeing to be abstinent from sexual activity for 48 hours prior to fluid collection. […] After signing informed consent and confirming eligibility, subjects completed a questionnaire and were then instructed on the use of the Instead Softcup® (Instead Inc., La Jolla, CA). Instead Softcup® is a FDA approved device to hold menstrual fluid during the menstrual period in replacement of a tampon or pad. Subjects inserted the cup and waited for 30 min. After this time period, the physician removed the cup, and placed it into a 50 mL conical centrifuge tube. Vaginal fluid collected from healthy volunteer women was stored at 4°C until used, and it was used within 4 h after collection.
The polymeric film solution was prepared as previously described by adding Milli Q water, PVA, and hydroxypropyl methyl cellulose (HPMC). The solution was then heated at 95°C for 20 minutes for complete dissolution of the polymers. […] The plate was placed into a vacuum oven at 30 ± 2°C for 20 ± 4 h. All dried films were removed from the plates and stored at room temperature in PET/Aluminum foil pouches (Amcor Flexibles Healthcare Inc, Mundelein, IL) until further analysis. […] For analytical purposes, films were dissolved in 1 mL of Milli Q water before addition to HVF.
The HVF from the Instead Softcup® was removed by centrifugation of the conical tube for 10 min at 5,000 rpm. […] HVF was then removed from the cup and the pH of each HVF sample was measured with Fisher Alkacid pH filter strips (Fisher Scientific). All samples collected on a specific day were pooled to be used for the research studies. If the pH of the individual samples was higher than 5, the sample was not included in the pool but it was stored at -80°C for separate analysis. If the sample contained blood, it was immediately discarded. Samples were prepared as described in Table 1. […] Because of its high viscosity, HVF was measured by weight and not by volume. […] At each time point, the samples were centrifuged at 10,000 rpm for 10 min to separate the supernatant from the epithelial cells as described in the cell processing section. Both parts (supernatant and cells) were stored at -80 ± C until analyzed by LC-MS/MS. To evaluate the influence of freezing the fluid prior to the analysis, the last pool of HVF was divided into two samples: one used fresh (at the time of collection), and the other one stored at -80°C for a 3-month period. […] HVF samples collected with a high pH value indicative of BV were stored at -80°C as previously mentioned. After confirmation of BV on those fluid samples by Gram stain score, the fluid samples (HVF BV^+) were thawed, pooled, and processed as described in Table 1.
At each time point, the sample was removed from the incubation chamber and centrifuged for 10 min at 10,000 rpm, at 4 ± C to separate the supernatant from cell pellet. Supernatant (100 μL) was added to microcentrifuge filters Ultracel YM-10 Microcon MWCO 10,000 (Millipore Corporation, Bedford, MA), which were pre-washed with Milli Q water to eliminate any trace of propylene glycol from the filters. Samples were centrifuged twice for 15 min at 8,500 rpm, at 4 ± C. The filtrate was collected and frozen at -80 ± C until further analysis. A solution of 3 M urea was added to the cell pellet (1:1 w/w) obtained from the first centrifugation, to lyse the cells. This mixture was vortexed three times for 30 sec, and then centrifuged for 10 min at 10,000 rpm, at 4 ± C. The supernatant obtained from the cell lysate was then added to microcentrifuge filters Ultracel YM-10 Microcon MWCO 10,000 pre-washed with Milli Q water. Samples were centrifuged twice for 15 min at 8,500 rpm, at 4 ± C. The filtrate was collected and frozen at -80 ± C until analysis.

HIV-1 = settings: RC-101 at pH 7, data not shown
[4] = system: X4 and R5 strains of HIV-1; settings: cited from earlier work
Description: Defensins are cysteine-rich, cationic antimicrobial peptides expressed by the leucocytes and epithelial cells of mammals. […] Retrocyclins (θ-Defensin) are the evolutionary descendants of α-defensin genes. Retrocyclins are circular 18-residue, tetracyclic peptides with three cysteine disulfide bonds. RC-101 ([…]), a cationic retrocyclin analog synthesized by solid phase peptide synthesis, has shown activity against X4 and R5 strains of HIV-1 in vitro [4]. The mechanism occur ...

[5] = Oxidation of RC-101 by hydrogen peroxide, HPLC; settings: 500 μg/mL
Method: as §1, §2, §3

Sequence: GICRCICGKGICRCICGR (bicyclic or more) [RC-101]
- change in amount of RC-101 on storage (HPLC) ([1]; 25 °C, 13 days, % peak area of time 0, n = 3, p > 0.5): no statistically significance difference
- change in amount of RC-101 on storage (HPLC) ([1]; 37 °C, 13 days, % peak area of time 0, n = 3, p > 0.5): no statistically significance difference
- change in amount of RC-101 on storage (HPLC) ([1]; 65 °C, 168 h, compared with 25 °C, n = 3, p < 0.04): significant decrease
- change in RC-101 concentration over time (HPLC) ([2]; pH 3, 10 mM phosphate buffer, 10 days, n = 3, p > 0.83): no statistically significant decrease
- change in RC-101 concentration over time (HPLC) ([2]; pH 4, 10 mM phosphate buffer, 10 days, n = 3, p > 0.83): no statistically significant decrease
- change in RC-101 concentration over time (HPLC) ([2]; pH 7, 10 mM phosphate buffer, 10 days, n = 3, p > 0.83): no statistically significant decrease
- change in RC-101 concentration over time (HPLC) ([2]; pH 12, 10 mM phosphate buffer, first 2 h, n = 3): significant decrease
- time RC-101 detected in HVF ([3]; another (one) pool of normal HVF, 37°C): up to 72 h
- detection of RC-101 by LC-MS/MS ([3]; fresh pooled normal HVF 100 mg + 100 μL (100 μg/mL), 1:1, 37°C, 0 h): +
- detection of RC-101 by LC-MS/MS ([3]; fresh pooled normal HVF 1:1, 37°C, 2 h): +
- detection of RC-101 by LC-MS/MS ([3]; fresh pooled normal HVF 1:1, 37°C, 6 h): +
- detection of RC-101 by LC-MS/MS ([3]; fresh pooled normal HVF 1:1, 37°C, 12 h): +
- detection of RC-101 by LC-MS/MS ([3]; fresh pooled normal HVF 1:1, 37°C, 24 h): +
- detection of RC-101 by LC-MS/MS ([3]; fresh pooled normal HVF 1:1, 37°C, 48 h): +
- detection of RC-101 by LC-MS/MS ([3]; fresh pooled normal HVF 1:1, 37°C, 72 h, only one pool analyzed): +
- time RC-101 detected after exposure to HVF ([3]; normal HVF, fresh, undiluted, pooled, 1:1 with RC-101 100 μg/mL, 37°C, LC-MS/MS (SRM), not quantitative, overall of 3 pools): at least 48 h
- time RC-101 detected in HVF ([3]; two pools of normal HVF, 37°C): 48 h
- effect of the folding change at pH 7 on bioactivity against HIV-1 (HIV-1): did not affect bioactivity
- activity against X4 and R5 strains of HIV-1 in vitro [4]: activity
- degradation rate compared with 3.0% H2O2 ([5]; 0.002% and 0.08% H2O2 (biologically relevant), HPLC): slower
- loss of RC-101 ([5]; 3.0% H2O2 (forced degradation), 4 h, HPLC-UV, n = 3): 20%
